The record followed here is PMC6386767, “Characterization of recombinant fructose-1,6-bisphosphatase gene mutations: evidence of inhibition/activation of FBPase protein by gene mutation” (Bioscience Reports, 2019).

Where a chain is given by its changes, count along the chain named.

For test [1], the target named is T1, pig kidney FBPase K112A (Sus scrofa, UniProt P00636, K113A).
T1 construct: His6 (C); made in house; host or cells: Escherichia coli BL21 (DE3)
T1 sequence (P00636 1-338 K113A): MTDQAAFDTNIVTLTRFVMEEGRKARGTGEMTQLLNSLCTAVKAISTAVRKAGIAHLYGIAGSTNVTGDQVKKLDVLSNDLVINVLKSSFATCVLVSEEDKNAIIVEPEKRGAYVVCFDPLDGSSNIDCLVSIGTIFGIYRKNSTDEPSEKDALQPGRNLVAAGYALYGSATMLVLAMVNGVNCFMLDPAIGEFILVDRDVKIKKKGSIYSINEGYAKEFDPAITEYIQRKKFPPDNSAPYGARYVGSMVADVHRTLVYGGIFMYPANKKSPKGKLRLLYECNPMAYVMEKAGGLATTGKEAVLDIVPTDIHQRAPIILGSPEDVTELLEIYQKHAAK
Nature of the test: Malachite Green kinetic assay, K112A mutant. It is filed as biochemical. To be noted: enzyme K112A vs WT. The protocol: (§1) For the kinetic assay, a standard curve was obtained from an ammonium molybdate Malachite Green inorganic phosphate assay (OD660 nm). The purified FBPase protein was dialyzed ×3 in 50 mM Tris buffer at pH 7.5 at 4°C. For enzyme concentration, absorbency values were recorded for all five mutant proteins using spectrophotometer readings at OD280 nm. To quantitate enzyme concentration, the enzymes were calculated based on the quantity of micrograms per microliter (µg/µl) present. Final concentration of WT and mutant enzymes was between 2.5 and 5.0 µg/µl. Using a colorimetric assay as described below, specific activity (SA) was determined. At last, all kinetic and binding assays described below were performed in 50 mM Tris pH 7.5.
(§2) Kinetic assays were performed for WT and mutant enzymes to identify functional differences between the WT enzyme and the mutants. […] Readings recorded at OD660 nm for each enzyme were applied to the standard curve equation. Micromoles of inorganic phosphate were calculated to determine the SA of mutant enzymes.
(§3) For each clone, the kinetic assay was performed in duplicates of triplicates. Malachite Geen was used to detect inorganic phosphate. Two separate clones were processed independently of the same mutant. All kinetic data were fit to symmetric sigmoidal curve using Origin software based on methods previously described [[27–29]]. More specifically, for kinetic parameters established via curve fitting (shown in Tables 1–3; and in Figure 5A,B), the equation y = d + (a − d)/1 + (x/c)^b was used where ‘x’ is represented by apparent Michelis constant (Km) when y = Vmax. […] P-values were significant at <0.001 and represent a comparison with the WT enzyme.

For test [2], the target named is T2, pig kidney FBPase Y113A (Sus scrofa, UniProt P00636, Y114A).
T2 construct: His6 (C); made in house; host or cells: Escherichia coli BL21 (DE3)
T2 sequence (P00636 1-338 Y114A): T1 sequence (P00636 1-338 K113A) with A113K, Y114A
Description: Malachite Green kinetic assay, Y113A mutant. The test is classed as biochemical. To be noted: enzyme Y113A vs WT. The protocol: as §1, §2, §3

For the compound `O=C(COP(=O)(O)O)[C@@H](O)[C@H](O)[C@H](O)COP(=O)(O)O` [FBP, fructose-1,6-bisphosphate], the “greater binding to the FBP substrate compared with WT” value in test [1] and in test [2] was 2 × throughout.
